# Source: US7999011B2, “Method for cardioprotection and neuroprotection by intravenous administration of halogenated volatile anesthetics” (Baxter International Inc., priority 2002, dated 2011)
# Experiments:
# [1] = Arterial blood gas analysis; assay type: in vivo, rabbit; settings: for pH: arterial blood
# Description: (§1) Male New Zealand white rabbits weighing between 2.5 and 3.0 kg were anesthetized with intravenous sodium pentobarbital (30 mg/kg). Additional doses of pentobarbital were titrated as required to assure that pedal and palpebral reflexes were absent throughout the experiment. A tracheotomy was performed through a ventral midline incision, and the trachea was cannulated. The rabbits were ventilated with positive pressure using an air-oxygen mixture (FiO2=0.33). […] Body temperature was maintained with a heating blanket. Heparin-filled catheters were inserted into the right carotid artery and the left jugular vein for measurement of arterial blood pressure and fluid or drug administration, respectively. Maintenance fluids consisted of 0.9% saline (15 ml/kg/h) that were continued for the duration of the experiment.
# (§2) Baseline measurements of systemic hemodynamics, arterial blood gas tensions, and blood concentrations of anesthetic agent were performed 30 min after instrumentation was completed. Rabbits received 0.9% saline, drug lipid vehicle (10 ml/h), or intravenous volatile anesthetic (10 ml/h) for 30 min. Infusions were discontinued 30 min prior to coronary occlusion (memory period). Blood concentrations of anesthetic agents were performed at baseline, at the end of anesthetic infusion, and at the end of the memory period just before coronary occlusion). HVA concentrations in blood were determined by gas chromatographic (GC) analysis. All rabbits underwent a 30 min LAD occlusion followed by 3 h reperfusion.
# (§3) Statistical analysis of data within and between groups was performed with analysis of variance (ANOVA) for repeated measures followed by Student-Newman-Keuls test. Changes between groups were considered statistically significant when the p value was less than 0.05. All data are expressed as mean±SEM.
# [2] = Literature MAC values in rabbits and 1 MAC-equivalent blood concentration; assay type: in vivo; settings: 37° C., rabbit; x=λn
# Description: “Minimum alveolar concentration (MAC)”, as is known in the art, is the alveolar concentration of an anesthetic, administered by inhalation at a pressure of 1 atmosphere, that prevents movement in 50% of patients in response to a painful stimuli. The MAC is age-dependent; it may be affected by a patient's medical condition; and it may also be affected by other pharmaceutical agents that are administered to the patient. In the context of intravenous administration of HVAs, the term “MAC” or “MAC-equivalent” is intended to mean an intravenous dose which produces the same blood plasma concentration of an anesthetic agent as that attained by inhalational administration of a gaseous concentration of anesthetic which prevents such movement in 50% of patients.
# Blood concentrations as measured by GC were converted to their MAC-equivalent values by calculations described below. Initially “n”, or the number of moles of HVA in 1 L of alveolar gas during exposure to 1.0 MAC of the HVA was calculated.
# The number of moles of the HVA in 1 L at 37° C. at 1 MAC in rabbits was then used to determine the concentration of the HVA present in blood by using known blood/gas partition values (also known as λ). […] The value for “x” (or the equivalent blood concentration of the HVA at 1 MAC at 37° C. in rabbit) is then determined by the equation: x=λn
# [3] = Systemic hemodynamics during infarct experiment; assay type: in vivo, rabbit
# Description: as §1
# A left thoracotomy was performed at the fourth intercostal space, and the heart was suspended in a pericardial cradle. A prominent branch of the left anterior descending coronary artery (LAD) was selected, and a silk ligature was placed around this artery approximately halfway between the base and apex for the production of coronary artery occlusion and reperfusion in myocardial infarct size experiments. Each rabbit was anticoagulated with 500 U of heparin immediately before LAD occlusion. Coronary artery occlusion was verified by the presence of epicardial cyanosis and regional dyskinesia in the ischemic zone, and reperfusion was confirmed by observing an epicardial hyperemic response. Hemodynamics were continuously recorded on a polygraph throughout experimentation. After the surgical preparation, 30 min of stabilization were allowed.
# as §2, §3
# [4] = literature values determined in rabbits; cited from earlier work
# [5] = i.v. emulsion 10 ml/h for 30 min, Baseline
smiles,measurement,setting,value
"FC(F)OC(F)(F)C(F)Cl (stereo not drawn) [ENF, enflurane]",PaCO2,[1]; Baseline,28 ± 2 mmHg
same,PaO2,[1]; Baseline,151 ± 16 mmHg
same,PaCO2,[1]; Infusion,31 ± 2 mmHg
same,PaO2,[1]; Infusion,130 ± 14 mmHg
same,PaCO2,[1]; Ischemia 30 min,32 ± 2 mmHg
same,PaO2,[1]; Ischemia 30 min,157 ± 22 mmHg
same,PaCO2,[1]; Memory,30 ± 2 mmHg
same,PaO2,[1]; Memory,149 ± 16 mmHg
same,PaCO2,[1]; Reperfusion 1 h,28 ± 2 mmHg
same,PaO2,[1]; Reperfusion 1 h,143 ± 11 mmHg
same,PaCO2,[1]; Reperfusion 2 h,27 ± 2 mmHg
same,PaO2,[1]; Reperfusion 2 h,135 ± 10 mmHg
same,PaCO2,[1]; Reperfusion 3 h,32 ± 3 mmHg
same,PaO2,[1]; Reperfusion 3 h,131 ± 12 mmHg
same,pH,[1]; Baseline,7.47 ± 0.02
same,pH,[1]; Infusion,7.41 ± 0.02
same,pH,[1]; Ischemia 30 min,7.37 ± 0.02
same,pH,[1]; Memory,7.40 ± 0.02
same,pH,[1]; Reperfusion 1 h,7.38 ± 0.02
same,pH,[1]; Reperfusion 2 h,7.40 ± 0.03
same,pH,[1]; Reperfusion 3 h,7.42 ± 0.02
same,"1 MAC-Equivalent Blood Concentration at 1 MAC (""x"")",[2],1.995 mM
same,MAP,[3]; Baseline,78 ± 4 mmHg
same,RPP,[3]; Baseline,22 ± 1.9 bpm × mmHg × 10^3
same,HR,[3]; Infusion,240 ± 11 bpm
same,MAP,[3]; Infusion,68 ± 3 mmHg
same,RPP,[3]; Infusion,18.9 ± 1.5 bpm × mmHg × 10^3
same,HR,[3]; Ischemia 30 min,213 ± 9 bpm
same,MAP,[3]; Ischemia 30 min,59 ± 6 mmHg
same,RPP,[3]; Ischemia 30 min,14.5 ± 1.7 bpm × mmHg × 10^3
same,HR,[3]; Memory,231 ± 11 bpm
same,MAP,[3]; Memory,70 ± 3 mmHg
same,RPP,[3]; Memory,18.9 ± 1.4 bpm × mmHg × 10^3
same,HR,[3]; Reperfusion 1 h,216 ± 7 bpm
same,MAP,[3]; Reperfusion 1 h,65 ± 6 mmHg
same,RPP,[3]; Reperfusion 1 h,15.8 ± 1.5 bpm × mmHg × 10^3
same,HR,[3]; Reperfusion 2 h,214 ± 10 bpm
same,MAP,[3]; Reperfusion 2 h,68 ± 7 mmHg
same,RPP,[3]; Reperfusion 2 h,16.5 ± 1.6 bpm × mmHg × 10^3
same,HR,[3]; Reperfusion 3 h,210 ± 7 bpm
same,MAP,[3]; Reperfusion 3 h,75 ± 5 mmHg
same,RPP,[3]; Reperfusion 3 h,17.6 ± 1.3 bpm × mmHg × 10^3
same,HR,[3]; [5],248 ± 10 bpm
same,Average MAC,[4],2.86 % v/v
"FCOC(C(F)(F)F)C(F)(F)F [SEVO, sevoflurane]",PaCO2,[1]; Baseline,37 ± 1 mmHg
same,PaO2,[1]; Baseline,125 ± 8^ mmHg
same,PaCO2,[1]; Infusion,38 ± 1 mmHg
same,PaO2,[1]; Infusion,118 ± 6 mmHg
same,PaCO2,[1]; Ischemia 30 min,40 ± 1 mmHg
same,PaO2,[1]; Ischemia 30 min,106 ± 12 mmHg
same,PaCO2,[1]; Memory,41 ± 1 mmHg
same,PaO2,[1]; Memory,107 ± 11 mmHg
same,PaCO2,[1]; Reperfusion 1 h,38 ± 1 mmHg
same,PaO2,[1]; Reperfusion 1 h,120 ± 7 mmHg
same,PaCO2,[1]; Reperfusion 2 h,38 ± 1 mmHg
same,PaO2,[1]; Reperfusion 2 h,127 ± 6^ mmHg
same,PaCO2,[1]; Reperfusion 3 h,39 ± 1 mmHg
same,PaO2,[1]; Reperfusion 3 h,121 ± 8 mmHg
same,pH,[1]; Baseline,7.44 ± 0.01
same,pH,[1]; Infusion,7.42 ± 0.01
same,pH,[1]; Ischemia 30 min,7.38 ± 0.01
same,pH,[1]; Memory,7.39 ± 0.01
same,pH,[1]; Reperfusion 1 h,7.39 ± 0.01
same,pH,[1]; Reperfusion 2 h,7.40 ± 0.01
same,pH,[1]; Reperfusion 3 h,7.39 ± 0.01
same,"1 MAC-Equivalent Blood Concentration at 1 MAC (""x"")",[2],0.94 mM
same,MAP,[3]; Baseline,increased
same,RPP,[3]; Baseline,22.9 ± 1.3 bpm × mmHg × 10^3
same,MAP,"[3]; Baseline, listed as SEV",92 ± 4 mmHg
same,HR,[3]; Infusion,235 ± 9 bpm
same,MAP,[3]; Infusion,increased
same,RPP,[3]; Infusion,23.7 ± 1.7 bpm × mmHg × 10^3
same,MAP,"[3]; Infusion, listed as SEV",91 ± 4 mmHg
same,HR,[3]; Ischemia 30 min,214 ± 8 bpm
same,MAP,[3]; Ischemia 30 min,64 ± 5 mmHg
same,RPP,[3]; Ischemia 30 min,15.7 ± 1.6 bpm × mmHg × 10^3
same,HR,[3]; Memory,227 ± 11 bpm
same,MAP,[3]; Memory,87 ± 4 mmHg
same,RPP,[3]; Memory,22.1 ± 1.8 bpm × mmHg × 10^3
same,HR,[3]; Reperfusion 1 h,206 ± 9 bpm
same,MAP,[3]; Reperfusion 1 h,65 ± 3 mmHg
same,RPP,[3]; Reperfusion 1 h,15.2 ± 1.3 bpm × mmHg × 10^3
same,HR,[3]; Reperfusion 2 h,193 ± 10 bpm
same,MAP,[3]; Reperfusion 2 h,65 ± 3 mmHg
same,RPP,[3]; Reperfusion 2 h,14 ± 1.2 bpm × mmHg × 10^3
same,HR,[3]; Reperfusion 3 h,188 ± 9 bpm
same,MAP,[3]; Reperfusion 3 h,65 ± 2 mmHg
same,RPP,[3]; Reperfusion 3 h,13.8 ± 0.8 bpm × mmHg × 10^3
same,HR,[3]; [5],227 ± 7 bpm
same,Average MAC,[4],3.7 % v/v
